Data as given in PubChem BioAssay (NCI).
“And” between values parts separate entries of the source, which are not always exact repeats. Equal entries are not always repeated.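 Interpolation was linear, between the two tested concentrations surrounding the appropriate level; five concentrations were tested over 48 hours in 96-well plates. At the GI50, growth is halved. TGI marks complete inhibition of growth.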

Legend:
Assay in all cases: growth of human tumour cells (NCI), 48 h
[1] = test system: UO-31 renal
[2] = test system: K-562 leukemia
[3] = test system: HT29 colon
[4] = test system: M14 melanoma
[5] = test system: SF-268 CNS
[6] = test system: SF-295 CNS
[7] = test system: HCC-2998 colon
[8] = test system: SK-MEL-5 melanoma
[9] = test system: LOX IMVI melanoma
[10] = test system: MCF7 breast

Row | SMILES | GI50 [1] | TGI [1] | GI50 [2] | TGI [2] | GI50 [3] | TGI [3] | GI50 [4] | TGI [4] | GI50 [5] | TGI [5] | GI50 [6] | TGI [6] | GI50 [7] | TGI [7] | GI50 [8] | TGI [8] | GI50 [9] | TGI [9] | GI50 [10] | TGI [10]
1 | CC1(C)N=C(N)N=C(N)N1c1cccc(/C=C/C=C/c2cccc([N+](=O)[O-])c2)c1 | 55.2 µM | > 100 µM | 3.29 µM | 19.6 µM | 1.59 µM | 14.7 µM | 13.6 µM | 50.1 µM | 3.64 µM | 17.4 µM | 10.3 µM | 28.3 µM | 4.71 µM | 18.5 µM | 2.96 µM | 12.5 µM | 5.02 µM | 19.2 µM | 5.57 µM | 22.4 µM
2 | CCOC(=O)c1cnc(SCc2ccc(Cl)c(Cl)c2)nc1N1CC1 | 1.87 µM | 7.63 µM | 1.15 µM | 14.8 µM | 2.7 µM | 12.2 µM | 2.89 µM | 11.7 µM | 3.05 µM | 12.2 µM | 2.43 µM | 8.99 µM | 2.07 µM | 4.73 µM | 3.39 µM | 12.6 µM | 1 µM | 5.73 µM | 1.27 µM | 11.4 µM
3 | O=C(Nc1n[nH]c2nc(-c3ccco3)c(Br)cc12)C1CC1 | > 25 µM | > 25 µM | > 25 µM | > 25 µM | > 25 µM | > 25 µM | > 25 µM | > 25 µM | > 25 µM | > 25 µM | > 25 µM | > 25 µM | > 25 µM | > 25 µM | > 16.4 µM | > 25 µM | > 21.7 µM | > 25 µM | > 7.12 µM | > 25 µM
4 | COc1ccc(N(C)c2nc(C)nc3ccccc23)cc1 | 0.0103 µM | 60.4 µM | < 0.01 µM | > 100 µM | < 0.01 µM |  | < 0.01 µM | 14.9 µM | < 0.01 µM | > 34 µM | < 0.01 µM |  | < 0.01 µM | 4.31 µM | < 0.01 µM | < 0.01 µM | < 0.01 µM | > 51.4 µM | < 0.01 µM | > 100 µM
5 | N#C/C(=C\c1c(-c2ccccc2)[nH]c2ccccc12)C(=O)c1ccc(Cl)cc1 | 5.85 µM | 36.3 µM | 0.336 µM | 5.32 µM | 0.476 µM | 21.4 µM | 0.725 µM | > 100 µM | 4.55 µM | 24.8 µM | 2.18 µM | 16.4 µM | 2.11 µM | 19.5 µM | 0.782 µM | 12.5 µM | 4.76 µM | > 100 µM | 0.753 µM | 14.5 µM
6 | C1=CN2C[n+]3cccc(OCc4ccccc4)c3N=C2C(OCc2ccccc2)=C1 |  | > 100 µM |  | 42.4 µM |  | 47.1 µM |  | 56.4 µM |  | > 100 µM |  | 50 µM |  | 23.2 µM |  | 21.2 µM |  | 86 µM |  | > 100 µM
7 | C[C@@H](c1ccc2nccn2c1)n1nnc2ncc(-c3cnn(C)c3)nc21 | > 100 µM | > 100 µM | > 100 µM | > 100 µM | > 100 µM | > 100 µM | > 100 µM | > 100 µM | > 100 µM | > 100 µM | 0.83 µM | > 100 µM | > 100 µM | > 100 µM | > 100 µM | > 100 µM | > 100 µM | > 100 µM | > 100 µM | > 100 µM
8 | COc1cc(CCc2cc(NC(=O)c3ccc(N4C[C@@H](C)N[C@@H](C)C4)cc3)n[nH]2)cc(OC)c1 | 2.84 µM and 2.7 µM | > 10 µM and 13.9 µM | 6.89 µM and 4.18 µM | > 10 µM and 15.8 µM | 3.86 µM and 3.33 µM | > 10 µM and 13.3 µM | 7.13 µM and 2.77 µM | > 10 µM and 10.9 µM | > 10 µM and 5.88 µM | > 10 µM and 20.7 µM | > 10 µM and 6.8 µM | > 10 µM and 21.3 µM | > 10 µM and 6.77 µM | > 10 µM and 19.5 µM | 9.72 µM and 3.83 µM | > 10 µM and 12.7 µM | 2.93 µM and 2.66 µM | > 10 µM and 10.3 µM | 3.29 µM and 2.85 µM | > 10 µM and 15.8 µM
9 | O=C1c2cc3c(cc2-c2c1c1cc(Cl)c(Cl)cc1c(=O)n2CCCn1ccnc1)OCO3 | < 0.01 µM | > 100 µM | 0.0111 µM | 20.8 µM | < 0.01 µM | > 100 µM | < 0.01 µM | 11.8 µM | < 0.01 µM | > 100 µM | < 0.01 µM | 0.0131 µM | 0.0538 µM | > 100 µM | < 0.01 µM | 0.0407 µM | < 0.01 µM | 0.0183 µM | < 0.01 µM | 12.3 µM
10 | CCCCCCCCCCCCCCCCCCNC(=O)[C@H]1CSC(c2ccc(OC)c(F)c2)N1 (stereo partly drawn) | > 32.8 µM | > 48.4 µM | 2 µM | 11.2 µM | 5.05 µM | > 41.4 µM | 1.43 µM | 3.5 µM | 1.73 µM | 4.14 µM | 26 µM | > 52.2 µM | 1.98 µM | 7.02 µM | 2.92 µM | 10.3 µM | 2.68 µM | 15.8 µM | 0.386 µM | 1.4 µM
11 | Cc1cc2c(C)c3cc(C)c(N)cc3nc2cc1N | 2.02 µM | 8.79 µM | 0.548 µM | 4.96 µM | 0.373 µM | 2.09 µM | 1.83 µM | 6.69 µM | 0.604 µM | 6.53 µM | 0.909 µM | 4.87 µM | 1.12 µM | 4.91 µM | 1.73 µM | 5.28 µM | 0.893 µM | 4.03 µM | 0.342 µM | 4.38 µM
